In US8524766B2, “Modulators of dopamine neurotransmission” (NSAB, Filial af Neurosearch Sweden AB, Sverige, priority 2008, dated 2013):
Where a name gives a salt, the structure may show the parent alone.

With `CS(=O)(=O)c1ccc2c(c1)OC(CN1CCCCC1)CO2` (centres unmarked) (as salt: hydrochloric acid salt) [Example 6, 1-{[7-(METHYLSULFONYL)-2,3-DIHYDRO-1,4-BENZODIOXIN-2-YL]METHYL}PIPERIDINE] the melting point was 248 °C. For `CCNC[C@H]1COc2ccc(S(=O)(=O)C(F)(F)F)cc2O1` (as salt: hydrochloric acid salt), the melting point was 208 °C. `CCNC[C@H]1COc2ccc(S(C)(=O)=O)cc2O1` (as salt: hydrochloric acid salt) showed a melting point of 271 °C. Work on `CS(=O)(=O)c1ccc2c(c1)O[C@H](CN1CCCCC1)CO2` (as salt: hydrochloric acid salt) [Example 8, 1-{[(2R)-7-(METHYLSULFONYL)-2,3-DIHYDRO-1,4-BENZODIOXIN-2-YL]METHYL}PIPERIDINE] yielded a melting point of 226 °C. In the case of `CCNCC1COc2c(F)cc(S(C)(=O)=O)cc2O1` (centres unmarked) (as salt: hydrochloric acid salt) [Example 18, N-{[5-FLUORO-7-(METHYLSULFONYL)-2,3-DIHYDRO-1,4-BENZODIOXIN-2-YL]METHYL}ETHANAMINE], the melting point is reported as 256 °C. In the case of `CS(=O)(=O)c1ccc2c(c1)O[C@@H](CNCCC(F)(F)F)CO2` (as salt: hydrochloric acid salt), the melting point is reported as 204 °C. `CS(=O)(=O)c1cc(F)c2c(c1)O[C@@H](CNCCC(F)(F)F)CO2` (as salt: hydrochloric acid salt) gave a melting point of 233 °C. Work on `CCCNC[C@H]1COc2ccc(S(=O)(=O)C(F)(F)F)cc2O1` (as salt: hydrochloric acid salt) [Example 24, N-{[(2S)-7-(TRIFLUOROMETHYLSULFONYL)-2,3-DIHYDRO-1,4-BENZODIOXIN-2-YL]METHYL}PROPAN-1-AMINE] yielded a melting point of 175 °C. With `CNC[C@H]1COc2c(F)cc(S(C)(=O)=O)cc2O1` (as salt: hydrochloric acid salt) the melting point was 260 °C. Compound `CCCNC[C@@H]1COc2ccc(S(C)(=O)=O)cc2O1` (as salt: hydrochloric acid salt) [Example 2, N-{[(2R)-7-(METHYLSULFONYL)-2,3-DIHYDRO-1,4-BENZODIOXIN-2-YL]METHYL}-PROPAN-1-AMINE] has a melting point of 228 °C. `CNCC1COc2c(F)cc(S(C)(=O)=O)cc2O1` (centres unmarked) (as salt: hydrochloric acid salt) gave a melting point of 243 °C. `CC(C)CNC[C@H]1COc2ccc(S(C)(=O)=O)cc2O1` (as salt: hydrochloric acid salt) gave a melting point of 214 °C. Work on `CS(=O)(=O)c1cc(F)c2c(c1)O[C@@H](CN1CCOCC1)CO2` (as salt: hydrochloric acid salt) yielded a melting point of 251 °C. For `CCNCC1COc2ccc(S(C)(=O)=O)cc2O1` (centres unmarked) (as salt: hydrochloric acid salt), the melting point was 261 °C. `CCNC[C@H]1COc2c(F)cc(S(C)(=O)=O)cc2O1` (as salt: hydrochloric acid salt) [Example 19, N-{[(2S)-5-FLUORO-7-(METHYLSULFONYL)-2,3-DIHYDRO-1,4-BENZODIOXIN-2-YL]METHYL}ETHANAMINE] showed a melting point of 274 °C. For `CC1CCCN(C[C@@H]2COc3ccc(S(C)(=O)=O)cc3O2)C1` (some centres unmarked) (as salt: fumaric acid salt), the melting point was 159 °C. In the case of `CNC[C@H]1COc2c(Cl)cc(S(C)(=O)=O)cc2O1` (as salt: hydrochloric acid salt), the melting point is reported as 262 °C. Work on `CCNC[C@H]1COc2c(Cl)cc(S(C)(=O)=O)cc2O1` (as salt: hydrochloric acid salt) yielded a melting point of 267 °C. For `CCCNC[C@H]1COc2ccc(S(C)(=O)=O)cc2O1` (as salt: hydrochloric acid salt) [Example 3, N-{[(2S)-7-(METHYLSULFONYL)-2,3-DIHYDRO-1,4-BENZODIOXIN-2-YL]METHYL}-PROPAN-1-AMINE], the melting point was 228 °C. Work on `CS(=O)(=O)c1ccc2c(c1)OC(CN1CCCC1)CO2` (centres unmarked) (as salt: hydrochloric acid salt) yielded a melting point of 221 °C. `CCCN(CCC)CC1COc2ccc(S(C)(=O)=O)cc2O1` (centres unmarked) (as salt: hydrochloric acid salt) [Example 16, N-{[7-(METHYLSULFONYL)-2,3-DIHYDRO-1,4-BENZODIOXIN-2-YL]METHYL}-N-PROPYLPROPAN-1-AMINE] gave a melting point of 182 °C. Work on `CNCC1COc2ccc(S(C)(=O)=O)cc2O1` (centres unmarked) (as salt: hydrochloric acid salt) [Example 9, N-METHYL-1-[7-(METHYLSULFONYL)-2,3-DIHYDRO-1,4-BENZODIOXIN-2-YL]METHANAMINE] yielded a melting point of 273 °C. With `CCCNCC1COc2ccc(S(C)(=O)=O)cc2O1` (centres unmarked) (as salt: hydrochloric acid salt) [Example 1, N-{[7-(METHYLSULFONYL)-2,3-DIHYDRO-1,4-BENZODIOXIN-2-YL]METHYL}-PROPAN-1-AMINE] the melting point was 223 °C. `CCCNC[C@H]1COc2c(F)cc(S(C)(=O)=O)cc2O1` (as salt: hydrochloric acid salt) [Example 76, N-{[(2S)-5-FLUORO-7-(METHYLSULFONYL)-2,3-DIHYDRO-1,4-BENZODIOXIN-2-YL]METHYL}-PROPAN-1-AMINE] showed a melting point of 192 °C. `CCCNC[C@H]1COc2c(F)cc(S(C)(=O)=O)cc2O1` (as salt: hydrochloric acid salt) [Example 21, N-{[(2S)-5-FLUORO-7-(METHYLSULFONYL)-2,3-DIHYDRO-1,4-BENZODIOXIN-2-YL]METHYL}PROPAN-1-AMINE] showed a melting point of 226 °C. `CNC[C@H]1COc2ccc(S(C)(=O)=O)cc2O1` (as salt: hydrochloric acid salt) [Example 10, N-METHYL-1-[(2S)-7-(METHYLSULFONYL)-2,3-DIHYDRO-1,4-BENZODIOXIN-2-YL]METHANAMINE] showed a melting point of 248 °C. With `CC(C)CNC[C@@H]1COc2ccc(S(C)(=O)=O)cc2O1` (as salt: hydrochloric acid salt) the melting point was 213 °C. With `CC(C)NC[C@H]1COc2ccc(S(=O)(=O)C(F)(F)F)cc2O1` (as salt: hydrochloric acid salt) [Example 98, N-({(2S)-7-[(TRIFLUOROMETHYL)SULFONYL]-2,3-DIHYDRO-1,4-BENZODIOXIN-2-YL}METHYL)PROPAN-2-AMINE] the melting point was 196.2 to 196.5 °C. `CCCN(C)CC1COc2ccc(S(C)(=O)=O)cc2O1` (centres unmarked) (as salt: hydrochloric acid salt) [Example 15, N-METHYL-N-{[7-(METHYLSULFONYL)-2,3-DIHYDRO-1,4-BENZODIOXIN-2-YL]METHYL}PROPAN-1-AMINE] showed a melting point of 222 °C. For `CS(=O)(=O)c1ccc2c(c1)O[C@@H](CN1CCCCC1)CO2` (as salt: hydrochloric acid salt) [Example 7, 1-{[(2S)-7-(METHYLSULFONYL)-2,3-DIHYDRO-1,4-BENZODIOXIN-2-YL]METHYL}PIPERIDINE], the melting point was 227 °C. Compound `CC(C)(C)CNC[C@H]1COc2ccc(S(C)(=O)=O)cc2O1` (as salt: hydrochloric acid salt) has a melting point of 242 °C. For `CCNC[C@H]1COc2ccc(S(C)(=O)=O)c(F)c2O1` (as salt: hydrochloric acid salt), the melting point was 270 °C.
